# In patent publication US20240180898A1, “USE OF AMINOTHIAZOLE DERIVATIVE IN TREATMENT OF IMMUNE INFLAMMATION” (INNAMUNE PHARMACEUTICAL CO. LTD., priority 2021, published 2024):
# Key:
# heart grafts = assay: allogeneic heart transplantation, Balb/c to B6; assay type: in vivo, mouse
# Excerpt: (§1) The paired mice for transplantation: The donor mouse is a balb/c mouse; The recipient mouse is B6 mouse. Transplant the donor's skin or heart separately to the recipient. After skin transplantation, INNA1605 (TJ-M2010-5) was continuously used for 2 weeks and then stopped. About 38% of the transplanted skin was permanently non-rejection. After administering TJ-M2010-5 for two weeks after allogeneic heart transplantation, 60% of the heart grafts were permanently not rejected. In these surviving recipient mice (non-rejection), the hearts of the same donor mice were transplanted for a second time without any treatment. The result was 100% non-rejection of the heart, confirming the development of immune tolerance against the same antigen (see FIGS. 34 and 35).
# [1] = drug concentration in blood after skin ointment on maximum body area; assay type: in vivo; conditions: skin ointments applied to the maximum body area
# [2] = test system: mouse spleen derived B cells; assay: R848 induced lupus like B cell immune disorder model in vitro; assay type: cell-based; conditions: TJ-5 10 or 20 μmol/L 3 hours before R848 500 ng/ml 48 hours
# Experimental: Preparation and grouping of an in vitro lupus like B cell immune disorder model:
# Model preparation: Mouse spleen derived B cells were purified using a magnetic bead sorting kit and cultured in vitro. Stimulating factor CD40L was added to maintain the long-term survival of B cells in vitro. Lupus like B cell immune disorders were induced by stimulating B cells with R848 (500 ng/ml) for 48 hours.
# The experiment is divided into four groups, namely: • Control group (without any treatment, normal cultured B cells); • R848 group (model group): Stimulate B cells with R848 (500 ng/ml) for 48 hours; • TJ-5 (10 μM) Group: First use TJ-5 (10 μmol/L) Pre stimulate B cells for 3 hours, then stimulate B cells with R848 (500 ng/ml) for 48 hours; • TJ-5 (20 μM) Group: First use TJ-5 (20 μmol/L) Pre stimulate B cells […] for 3 hours, then stimulate B cells with R848 (500 ng/ml) for 48 hours.
# Collect cells and cell culture supernatant for detection after R848 stimulation is completed.
# [3] = test system: H22 hepatocellular carcinoma cells; assay: subcutaneous H22 hepatocellular carcinoma implantation; assay type: in vivo, mouse; conditions: balb/c mice
# Excerpt: H22 hepatocellular carcinoma cells were subcutaneously implanted in balb/c mice and allowed to grow freely. The animals were divided into two groups: the INNA1605 (TJ-M2010-5) group and the non-drug control group.
# CSDS depression model = assay: Frustrative Depression (CSDS) model; assay type: in vivo, mouse; conditions: C57BL/6J mice
# Experimental: Male C57BL/6J mice (6-7 weeks old, 18-20 g weight) and male CD-1 mice ([…] old) were used to create a model of Frustrative Depression (CSDS). C57BL/6J mice were attacked by different CD-1 […] for 10 minutes every day for 10 consecutive days. At night, the two types of mice were kept in the same cage separated by a perforated transparent glass to maintain the pressure of the attack.
# allergic rhinitis model = assay: OVA allergic rhinitis (AR) model; assay type: in vivo, mouse
# Experimental: To establish a model of AR, mice were injected intraperitoneally with 25 μg ovalbumin (OVA) and 2 mg aluminum hydroxide on days 0, 7, and 14 to promote primary sensitization. One week after the primary sensitization, the secondary immunization was built. Mice were intranasally challenged with 3% OVA daily from 21 to 35 days. Animals were divided into three groups: Sham group, AR group and AR+TJ-5 group. After 35 days of OVA administration, the number of mice rubbing and sneezing within 10 min was recorded. Nasal lavage fluid was collected 12 h after OVA treatment under anesthesia.
# transplanted skin = assay: allogeneic skin transplantation, Balb/c to B6; assay type: in vivo, mouse; conditions: used for 2 weeks then stopped
# Excerpt: as §1
# [4] = test system: middle cerebral artery occlusion (MCAO) model; assay: reperfusion injury after acute cerebral infarction (MCAO model); assay type: in vivo, mouse; conditions: 15 mg/kg intravenously, 1 hour ischemia, 24 hours reperfusion
# Experimental: Preparation and grouping of a mouse model of reperfusion injury after acute cerebral infarction: Model preparation: Adult male C57BL/6 mice (8-10 weeks old, weighing 22-25 g) were fasted for 8 hours before surgery and allowed to drink freely. Intraperitoneal injection of 1% pentobarbital sodium solution for anesthesia. […]
# [5] = test system: inflammatory colon cancer model; assay: AOM/DSS induced inflammatory colon cancer model; assay type: in vivo, mouse
# Experimental: Preparation and grouping of mouse inflammatory colon cancer model:
# Model preparation: 6-8-week-old male C57 mice were intraperitoneally injected with AOM (10 mg/Kg)/DSS (2.5%) to induce an inflammatory colon cancer model.
# The experiment was divided into two groups, namely: • Inflammatory colon cancer model group (without any treatment, i.e. AOM/DSS group), TJ-M2010-5 medication group (intraperitoneal injection). The specific handling method is as follows: • TJ-M2010-5 medication group: Two days before inducing inflammatory colon cancer in C57 mice by intraperitoneal injection of AOM (10 mg/kg)/DSS (2.5%), TJ-M2010-5 was injected intraperitoneally at a dose of 50 mg/kg once a day for 10 consecutive weeks.
# [6] = intraperitoneal 50 mg/kg once a day, 10 weeks
compound,measurement,setting,value
"O=C(CCN1CCN(Cc2ccccc2)CC1)Nc1nc(-c2ccccc2)cs1 [INNA1605, 3-(4-benzylpiperazine-1-yl)-N-(4-phenylthiazole-2-yl) propionamide]",heart grafts permanently not rejected,heart grafts; administered for two weeks,60%
same,non-rejection of second heart of the same donor mice,"heart grafts; surviving recipient mice, second transplant without any treatment",100%
same,drug concentration in the blood,[1],2 to 3 ng/mL
same,abnormal activation and differentiation of B cells,[2],can inhibit abnormal activation and differentiation of B cells
same,secretion of B cell autoantibodies and inflammatory factors,[2],inhibit the secretion of B cell autoantibodies and inflammatory factors
same,tumor size,[3],significantly smaller than that in the control group
same,induced depressive behavior and neuroinflammation in the brain,CSDS depression model,significantly improves induced depressive behavior and neuroinflammation in the brain
same,"levels of IL-4, IL-1β, IL-18 and TNF-α in nasal mucosa","allergic rhinitis model; mouse, in vivo",decreased
same,sneezing and nasal rubbing,allergic rhinitis model; within 10 min after 35 days of OVA,relieved these symptoms
same,transplanted skin permanently non-rejection,transplanted skin,About 38%
same,reduction of infarct volume of acute cerebral infarction,[4],80%
same,proliferation of epithelial cells in the colon mucosa,"[5]; BrdU, Ki-67",significantly inhibited
same,neutrophil infiltration,[5]; MPO staining of colon mucosa,significantly reduced
same,inflammatory tissue damage of the colon mucosa,[5]; [6],significantly reduced
same,therapeutic effect,[5]; [6],excellent
same,no carcinogenesis observed,[5]; model group 100% cancerous transformation,100%
same,colitis,"[5]; mouse, in vivo",disappeared
same,mucosal thickening,"[5]; mouse, in vivo",improved
